Literature values as cited in US20240350678A1, “SYSTEMS AND METHODS FOR GENERATION OF HYPERPOLARIZED MATERIALS” (NVISION IMAGING TECHNOLOGIES GMBH, priority 2021, published 2024).
Read-outs that look alike come from different tables or passages of the source.

maximal mole fraction of acetic acid in n-heptane (at 14.8° C.): 0.935
maximal mole fraction of acetic acid in n-heptane (at −29.2° C.): 0.02
Structure (SMILES): CC(=O)O [acetic acid]
